Consider nine compounds from patent US10626108B2, “Heterocyclic indoles for use in influenza virus infection” (Janssen Sciences Ireland UC, priority 2015, dated 2020).

Structures are written as SMILES. Bounds are passed on as bounds.

One data set can be described thus: in vitro. The note with it: dog.
The test system of data set [1] is influenza virus A/Taiwan/1/86 (H1N1). Put plainly: organism not typed. Conditions: 72 h; MDCK cells infected with influenza A/Taiwan/1/86 (H1N1), MOI 0.001 or 0.01; CPE via ATP levels three days post-virus exposure. It counts as cell-based.

Broadly, the IC50 is the concentration that inhibits the measured activity by half. Consider `O=C(O)[C@H]1C2CCC(CC2)[C@@H]1Nc1cnnc(-c2c[nH]c3c(F)cc(F)cc23)n1` (racemic) [Compound 6], for which the CC50 at 3 days in “in vitro” was over 5000 nM. In data set [1], the midpoint of inhibition, the IC50, lay at 130 nM.
The corresponding values for `Cc1nc(-c2c[nH]c3c(F)cc(F)cc23)nc(N[C@H]2CCC[C@@H](NC(=O)c3cn(C)cn3)C2)c1F` [Compound 13] are 10400 nM and 1 nM.
The corresponding values for `Cc1nc(-c2c[nH]c3c(F)cc(F)cc23)nc(N[C@H]2CCC[C@@H](NC(=O)c3cnn(C)c3)C2)c1F` [Compound 14] are over 25000 nM and 2 nM.
The corresponding values for `Cc1nc(-c2c[nH]c3c(F)cc(F)cc23)nc(N[C@H]2CCC[C@@H](NC(=O)c3cnn[nH]3)C2)c1F` [Compound 15] are 3400 nM and 0.2 nM.
In the data set “in vitro”, `Cc1nc(-c2c[nH]c3ncncc23)nc(N[C@@H]2CCC[C@H](NC(=O)c3ccccn3)C2)c1F` [Compound 21] yielded a CC50 at 3 days of over 25000 nM. The compound further registered an IC50 in data set [1] of 1 nM.
The corresponding values for `O=C(N[C@H]1CCC[C@@H](Nc2cncc(-c3c[nH]c4c(F)cc(F)cc34)n2)C1)N1CCCC1` [Compound 25] are 9700 nM and 26 nM.
The corresponding values for `O=C(N[C@H]1CCC[C@@H](Nc2cnnc(-c3c[nH]c4c(F)cc(F)cc34)n2)C1)N1CCCC1` [Compound 28] are 15500 nM and 8 nM.
In turn, `Cc1nc(-c2c[nH]c3c(F)cc(F)cc23)nc(N[C@H]2CCC[C@@H](NC(=O)c3csc(C(=O)O)n3)C2)c1F` [Compound 29] had a CC50 at 3 days in the data set “in vitro” of 21000 nM. In data set [1], this compound had an IC50 of 2 nM.
The corresponding values for `O=C(N[C@H]1CCC[C@@H](Nc2nc(-c3c[nH]c4c(F)cc(F)cc34)nc(C(=O)O)c2F)C1)c1cnn[nH]1` [Compound 36] are over 25000 nM and 7 nM.
